What all share (format): cell-based
The subject of test [1] is Aspergillus fumigatus AF210. As to the kind of experiment: MIC, RPMI medium. The conditions noted are these: for MIC: Aspergillus fumigatus, AF210, MIC banded into grades, read-out: MIC grade, A. fumigatus 210; for MIC grade, A. fumigatus 210: MIC banded into grades. In short, it runs like this: (§1)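 MIC taken as lowest drug level inhibiting growth by >80% relative to drug-free wells, read as OD at 485 nm after 24-48 h at 35° C. Organisms at 1−2×10^4 cfu/mL in RPMI (2% glucose, 0.135 M MOPS, pH 7.0) exposed to doubling dilutions spanning 50-0.05 mg/L.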

The subject of test [2] is Aspergillus fumigatus AF293. As to the kind of experiment: MIC, RPMI medium. The following applies: for MIC: Aspergillus fumigatus, AF293, MIC banded into grades, read-out: MIC grade, A. fumigatus; for MIC grade, A. fumigatus: MIC banded into grades. In short, it runs like this:
as §1

Test [3] relates to Aspergillus terreus AT49. The test can be described thus: MIC, RPMI medium. The conditions noted are these: for MIC: Aspergillus terreus, AT49, MIC banded into grades, read-out: MIC grade, A. terreus 49; for MIC grade, A. terreus 49: MIC banded into grades. The gist of the method:
as §1

For test [4], the system named is Aspergillus flavus. As to the kind of experiment: MIC, RPMI medium. The conditions noted are these: MIC banded into grades; for MIC: Aspergillus flavus, read-out: MIC grade, A. flavus. The gist of the method: as §1
The test system of test [5] is Aspergillus terreus AT4. The test can be described thus: MIC, RPMI medium. The conditions noted are these: for MIC: Aspergillus terreus, AT4, MIC banded into grades, read-out: MIC grade, A. terreus; for MIC grade, A. terreus: MIC banded into grades. In short, it runs like this:
as §1

Test [6] has as its system Aspergillus niger. As to the kind of experiment: MIC, RPMI medium. The following applies: MIC banded into grades; for MIC: Aspergillus niger, read-out: MIC grade, A. niger. In short, it runs like this: as §1
Test [7] deals with Aspergillus fumigatus AF210. The test can be described thus: MIC, YAG medium. The following applies: 24 h at 35° C, MIC banded into grades; for MIC: Aspergillus fumigatus, read-out: MIC grade, A. fumigatus 210. In short, it runs like this: (§2)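 Endpoint is growth at OD 485 nm after 24 h at 35° C, with MIC defined as the lowest drug level giving >70% inhibition relative to untreated wells and recorded in mg/L. Tests ran in YAG broth with 1−2×10^4 cfu/mL spore inocula from Sabouraud-grown cultures. Drug ranges were 50-0.05 mg/L, repeated at 0.5-0.0005 mg/L when needed.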

Test [8] concerns Aspergillus fumigatus AF293. As to the kind of experiment: MIC, YAG medium. The conditions noted are these: 24 h at 35° C, MIC banded into grades; for MIC: Aspergillus fumigatus, read-out: MIC grade, A. fumigatus. In short, it runs like this:
as §2

The subject of test [9] is Aspergillus terreus AT49. As to the kind of experiment: MIC, YAG medium. The conditions noted are these: 24 h at 35° C, MIC banded into grades; for MIC: Aspergillus terreus, read-out: MIC grade, A. terreus 49. In short, it runs like this: as §2
For test [10], the system named is Aspergillus flavus. As to the kind of experiment: MIC, YAG medium. The following applies: 24 h at 35° C, MIC banded into grades; for MIC: Aspergillus flavus, 24 h, read-out: MIC grade, A. flavus. In short, it runs like this: as §2
Test [11] concerns Aspergillus terreus AT4. The test can be described thus: MIC, YAG medium. The following applies: 24 h at 35° C, MIC banded into grades; for MIC: Aspergillus terreus, read-out: MIC grade, A. terreus. The gist of the method:
as §2

Test [12] has as its system Aspergillus niger. The test can be described thus: MIC, YAG medium. The conditions noted are these: 24 h at 35° C, MIC banded into grades; for MIC: Aspergillus niger, read-out: MIC grade, A. niger. The gist of the method: as §2

Structures are written as SMILES. Values after ≈ are worked out from the molar mass of the structure shown.

By MIC is commonly meant the least concentration at which growth counts as inhibited. Regarding `Cc1cc(C)nc(N2CCN(c3ccc(NC(=O)C(=O)c4c(C5CCOCC5)cc(C)n4C)cc3)CC2)c1` [Example 15, N-{4-[4-(4,6-Dimethyl-pyridin-2-yl)-piperazin-1-yl]-phenyl}-2-[1,5-dimethyl-3-(tetrahydro-pyran-4-yl)-1H-pyrrol-2-yl]-2-oxo-acetamide], the MIC (in test [1]; in test [2]; with Aspergillus terreus AT49 [3]; with Aspergillus flavus [4]; with Aspergillus terreus AT4 [5]; with Aspergillus niger [6]) was less than 1 µg/mL throughout. In addition, the minimum inhibitory concentration (MIC) (in [7]; in test [8]; with Aspergillus terreus AT49 [9]; with Aspergillus flavus [10]; in the test on Aspergillus terreus AT4 [11]; in the test with Aspergillus niger [12]) was less than 1 µg/mL each time.
As to `COCc1cc(-c2ccccc2)c(C(=O)C(=O)Nc2ccc(N3CCN(c4cc(C)cc(C)n4)CC3)cc2)n1C` [Example 130, N-{4-[4-(4,6-Dimethyl-pyridin-2-yl)-piperazin-1-yl]-phenyl}-2-(5-methoxymethyl-1-methyl-3-phenyl-1H-pyrrol-2-yl)-2-oxo-acetamide], the MIC (in test [1]; in [2]; in the test with Aspergillus terreus AT49 [3]; with Aspergillus flavus [4]; with Aspergillus terreus AT4 [5]; in the test with Aspergillus niger [6]) was less than 1 µg/mL each time. Further, the MIC (in [7]; in [8]; in the test on Aspergillus terreus AT49 [9]; in the test with Aspergillus flavus [10]; with Aspergillus terreus AT4 [11]; in the test with Aspergillus niger [12]) was less than 1 µg/mL in each case.
Take `Cc1cc(C)nc(N2CCN(c3ccc(NC(=O)C(=O)c4cc(-c5ccccc5)c5n4CCCCC5)cc3)CC2)c1` [41 b]: the “MIC grade, A. fumigatus 210” value in [1] is 1 (a grade of 1 represents an MIC of greater than 10 mg/L); in test [7], 2 (A grade of 2 represents an MIC of from 1 to 10 mg/L). Moreover, the “MIC grade, A. fumigatus” value in [2] and in test [8] was 2 (A grade of 2 represents an MIC of from 1 to 10 mg/L) each time. Further, the “MIC grade, A. terreus 49” value in the test with Aspergillus terreus AT49 [3] and in the test on Aspergillus terreus AT49 [9] was 1 (a grade of 1 represents an MIC of greater than 10 mg/L) each time. Moreover, the “MIC grade, A. flavus” value in the test on Aspergillus flavus [4] and in the test on Aspergillus flavus [10] was 1 (a grade of 1 represents an MIC of greater than 10 mg/L) each time. For the same compound, the “MIC grade, A. terreus” value with Aspergillus terreus AT4 [5] and against Aspergillus terreus AT4 [11] was 1 (a grade of 1 represents an MIC of greater than 10 mg/L) each time. The “MIC grade, A. niger” value in the test on Aspergillus niger [6] and against Aspergillus niger [12] was 1 (a grade of 1 represents an MIC of greater than 10 mg/L) throughout.
Take `COCCn1c(C(C)C)cc(-c2ccccc2)c1C(=O)C(=O)Nc1ccc(N2CCN(c3cc(C)cc(C)n3)CC2)cc1` [Example 78, N-{4-[4-(4,6-Dimethyl-pyridin-2-yl)-piperizin-1-yl]-phenyl}-2-[5-isopropyl-1-(2-methoxy-ethyl)-3-phenyl-1H-pyrrol-2-yl]-2-oxo-acetamide]: the “MIC grade, A. fumigatus 210” value in [1] and in [7] was 1 (a grade of 1 represents an MIC of greater than 10 mg/L) each time. Moreover, the “MIC grade, A. fumigatus” value in test [2] and in test [8] was 1 (a grade of 1 represents an MIC of greater than 10 mg/L) throughout. For the same compound, the “MIC grade, A. terreus 49” value is listed as 1 (a grade of 1 represents an MIC of greater than 10 mg/L) against Aspergillus terreus AT49 [3] and 2 (A grade of 2 represents an MIC of from 1 to 10 mg/L) in the test on Aspergillus terreus AT49 [9]. The “MIC grade, A. flavus” value against Aspergillus flavus [4] and with Aspergillus flavus [10] was 1 (a grade of 1 represents an MIC of greater than 10 mg/L) in each case. The “MIC grade, A. terreus” value in the test with Aspergillus terreus AT4 [5] and with Aspergillus terreus AT4 [11] was 1 (a grade of 1 represents an MIC of greater than 10 mg/L) each time. In addition, the “MIC grade, A. niger” value with Aspergillus niger [6] and in the test on Aspergillus niger [12] was 1 (a grade of 1 represents an MIC of greater than 10 mg/L) each time.
As for `Cc1cc(-c2ccccc2)c(C(=O)C(=O)Nc2cccc3ccncc23)n1C` [Example 43, 2-(1,5-Dimethyl-3-phenyl-1H-pyrrol-2-yl)-N-isoquinolin-8-yl-2-oxo-acetamide], the MIC in test [1] was more than 10 µg/mL; in [2] it was more than 10 µg/mL; with Aspergillus terreus AT49 [3], more than 10 µg/mL; in the test with Aspergillus flavus [4] it was 1 to 10 µg/mL (≈ 2.71 to 27.1 µM); in the test on Aspergillus terreus AT4 [5], 1 to 10 µg/mL (≈ 2.71 to 27.1 µM); in the test with Aspergillus niger [6], more than 10 µg/mL. The MIC in test [7] was 1 to 10 µg/mL (≈ 2.71 to 27.1 µM); in test [8], 1 to 10 µg/mL (≈ 2.71 to 27.1 µM); in the test with Aspergillus terreus AT49 [9] it was 1 to 10 µg/mL (≈ 2.71 to 27.1 µM); in the test on Aspergillus flavus [10], less than 1 µg/mL; in the test with Aspergillus terreus AT4 [11], 1 to 10 µg/mL (≈ 2.71 to 27.1 µM); in the test on Aspergillus niger [12], more than 10 µg/mL.
On to `Cc1cc(C)nc(N2CCN(c3ccc(NC(=O)C(=O)c4c(-c5ccccc5)cc(C)n4CCOC(C)C)cc3)CC2)c1` [Example 97, N-{4-[4-(4,6-Dimethyl-pyridin-2-yl)-piperazin-1-yl]-phenyl}-2-[1-(2-isopropoxy-ethyl)-5-methyl-3-phenyl-1H-pyrrol-2-yl]-2-oxo-acetamide], for which the MIC in test [1] was 1 to 10 µg/mL (≈ 1.72 to 17.2 µM); in test [2] it was less than 1 µg/mL; with Aspergillus terreus AT49 [3], 1 to 10 µg/mL (≈ 1.72 to 17.2 µM); with Aspergillus flavus [4], 1 to 10 µg/mL (≈ 1.72 to 17.2 µM); in the test on Aspergillus terreus AT4 [5] it was 1 to 10 µg/mL (≈ 1.72 to 17.2 µM); in the test with Aspergillus niger [6], 1 to 10 µg/mL (≈ 1.72 to 17.2 µM). Further, the MIC in [7] is less than 1 µg/mL; in [8] it was 1 to 10 µg/mL (≈ 1.72 to 17.2 µM); in the test with Aspergillus terreus AT49 [9], 1 to 10 µg/mL (≈ 1.72 to 17.2 µM); with Aspergillus flavus [10] it was 1 to 10 µg/mL (≈ 1.72 to 17.2 µM); in the test on Aspergillus terreus AT4 [11], 1 to 10 µg/mL (≈ 1.72 to 17.2 µM); with Aspergillus niger [12], 1 to 10 µg/mL (≈ 1.72 to 17.2 µM).
As for `Cc1cc(-c2ccccc2)c(C(=O)C(=O)Nc2ccc(N3CCN(CC(C)C)CC3)c(F)c2)n1C` [Example 118, 2-(1,5-Dimethyl-3-phenyl-1H-pyrrol-2-yl)-N-[3-fluoro-4-(4-isobutyl-piperazin-1-yl)-phenyl]-2-oxo-acetamide], the minimal inhibitory concentration (MIC) (in test [1]; in test [2]; with Aspergillus terreus AT49 [3]; in the test on Aspergillus flavus [4]; in the test with Aspergillus terreus AT4 [5]; in the test on Aspergillus niger [6]) was less than 1 µg/mL each time. The MIC (in test [7]; in [8]; in the test with Aspergillus terreus AT49 [9]; in the test with Aspergillus flavus [10]; in the test with Aspergillus terreus AT4 [11]; with Aspergillus niger [12]) was less than 1 µg/mL each time.
Take `COCCn1cc(-c2ccccc2Cl)cc1C(=O)C(=O)Nc1ccc(N2CCN(c3cc(C)cc(C)n3)CC2)cc1` [Example 58, 2-[4-(2-Chloro-phenyl)-1-(2-methoxy-ethyl)-1H-pyrrol-2-yl]-N-{4-[4-(4,6-dimethyl-pyridin-2-yl)-piperazin-1-yl]-phenyl}-2-oxo-acetamide]: the MIC (in test [1]; in test [2]; with Aspergillus terreus AT49 [3]; with Aspergillus flavus [4]; in the test with Aspergillus terreus AT4 [5]; in the test with Aspergillus niger [6]) was more than 10 µg/mL throughout. Moreover, the MIC in [7] is 1 to 10 µg/mL (≈ 1.75 to 17.5 µM); in [8] it was 1 to 10 µg/mL (≈ 1.75 to 17.5 µM); in the test on Aspergillus terreus AT49 [9], 1 to 10 µg/mL (≈ 1.75 to 17.5 µM); with Aspergillus flavus [10] it was 1 to 10 µg/mL (≈ 1.75 to 17.5 µM); with Aspergillus terreus AT4 [11], 1 to 10 µg/mL (≈ 1.75 to 17.5 µM); in the test with Aspergillus niger [12] it was more than 10 µg/mL.
`Cc1cc(C)nc(N2CCN(c3ccc(NC(=O)C(=O)c4c(-c5ccccc5)cc(C)n4C)cc3COCCCN3CCN(C)CC3)CC2)c1` [Example 19, 2-(1,5-Dimethyl-3-phenyl-1H-pyrrol-2-yl)-N-{4-[4-(4,6-dimethyl-pyridin-2-yl)-piperazin-1-yl]-3-[3-(4-methyl-piperazin-1-yl)-propoxymethyl]-phenyl}-2-oxo-acetamide]: the MIC (in test [1]; in [2]; with Aspergillus terreus AT49 [3]; with Aspergillus flavus [4]; in the test on Aspergillus terreus AT4 [5]; in the test with Aspergillus niger [6]) was more than 10 µg/mL each time. The MIC in test [7] was more than 10 µg/mL; in [8], more than 10 µg/mL; in the test on Aspergillus terreus AT49 [9], 1 to 10 µg/mL (≈ 1.48 to 14.8 µM); in the test with Aspergillus flavus [10], 1 to 10 µg/mL (≈ 1.48 to 14.8 µM); in the test on Aspergillus terreus AT4 [11], more than 10 µg/mL; in the test on Aspergillus niger [12], more than 10 µg/mL.

The record behind these values is patent publication US8993574B2, “Pyrrole antifungal agents” (F2G Ltd, priority 2008, dated 2015).
